Assay results published in patent publication US11236087B2, “Highly active pyrazolo-piperidine substituted indole-2-carboxamides active against the hepatitis B virus (HBV)” (AiCuris GmbH & Co. KG, priority 2017, dated 2022).

Assays:
HBV core protein = molecular target: T1, HBV core protein (UniProt P03146); experiment: Biochemical capsid assembly assay (fluorescence quenching); design: species or system hepatitis B virus; conditions: read-out: Assembly Activity (IC50); BODIPY-FL labelled core protein, 300 μM NaCl, read 6 min after start
T1 construct: fused on or other part: BODIPY-FL maleimide label on the C-terminal Cys150
Protocol: Biochemical Capsid Assembly Assay
The screening for assembly effector activity was done based on a fluorescence quenching assay published by Zlotnick et al. (2007). The C-terminal truncated core protein containing 149 amino acids of the N-terminal assembly domain fused to a unique cysteine residue at position 150 and was expressed in E. coli using the pET expression system (Merck Chemicals, Darmstadt). Purification of core dimer protein was performed using a sequence of size exclusion chromatography steps. In brief, the cell pellet from 1 L BL21 (DE3) Rosetta2 culture expressing the coding sequence of core protein cloned NdeI/XhoI into expression plasmid pET21b was treated for 1 h on ice with a native lysis buffer (Qproteome Bacterial Protein Prep Kit; Qiagen, Hilden). After a centrifugation step the supernatant was precipitated during 2 h stirring on ice with 0.23 g/ml of solid ammonium sulfate. Following further centrifugation the resulting pellet was resolved in buffer A (100 mM Tris, pH 7.5; 100 mM NaCl; 2 mM DTT) and was subsequently loaded onto a buffer A equilibrated CaptoCore 700 column (GE HealthCare, Frankfurt). The column flow through containing the assembled HBV capsid was dialyzed against buffer N (50 mM NaHCO3 pH 9.6; 5 mM DTT) before urea was added to a final concentration of 3M to dissociate the capsid into core dimers for 1.5 h on ice. The protein solution was then loaded onto a 1 L Sephacryl S300 column. After elution with buffer N core dimer containing fractions were identified by SDS-PAGE and subsequently pooled and dialyzed against 50 mM HEPES pH 7.5; […]. To improve the assembly capacity of the purified core dimers a second round of assembly and disassembly starting with the addition of 5 M NaCl and including the size exclusion chromatography steps described above was performed. From the last chromatography step core dimer containing fractions were pooled and stored in aliquots at concentrations between 1.5 to 2.0 mg/ml at −80° C.
Immediately before labelling the core protein was reduced by adding freshly prepared DTT in a final concentration of 20 mM. After 40 min incubation on ice storage buffer and DTT was removed using a Sephadex G-25 column (GE HealthCare, Frankfurt) and 50 mM HEPES, pH 7.5. For labelling 1.6 mg/ml core protein was incubated at 4° C. and darkness overnight with BODIPY-FL maleimide (Invitrogen, Karlsruhe) in a final concentration of 1 mM. After labelling the free dye was removed by an additional desalting step using a Sephadex G-25 column. Labelled core dimers were stored in aliquots at 4° C. In the dimeric state the fluorescence signal of the labelled core protein is high and is quenched during the assembly of the core dimers to high molecular capsid structures. The screening assay was performed in black 384 well microtiter plates in a total assay volume of 10 μl using 50 mM HEPES pH 7.5 and 1.0 to 2.0 μM labelled core protein. Each screening compound was added in 8 different concentrations using a 0.5 log-unit serial dilution starting at a final concentration of 100 μM, 31.6 μM or 10 μM, In any case the DMSO concentration over the entire microtiter plate was 0.5%. The assembly reaction was started by the injection of NaCl to a final concentration of […] which induces the assembly process to approximately 25% of the maximal quenched signal. 6 min after starting the reaction the fluorescence signal was measured using a Clariostar plate reader (BMG Labtech, Ortenberg) with an excitation of 477 nm and an emission of 525 nm. As 100% and 0% assembly control HEPES buffer containing 2.5 M and 0 M NaCl was used. Experiments were performed thrice in triplicates. EC50 values were calculated by non-linear regression analysis using the Graph Pad Prism 6 software (GraphPad Software, La Jolla, USA).

HBV = experiment: Determination of HBV DNA from the supernatants of HepAD38 cells (anti-HBV activity); assay type: cell-based, hepatitis B virus; conditions: Hepatitis B virus, 144 h; HBV DNA in HepAD38 supernatant, day 6, qPCR; read-out: Cell Activity (EC50)
Outline: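 Supernatant viral DNA was measured by LightCycler qPCR, calibrated with pCH-9/3091 plasmid, 6 days after tetracycline-free HepAD38 cultures received half-log serial compound dilutions; untreated and tetracycline-treated cells served as controls; EC50 was fitted by non-linear regression.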

[1] = Cell viability assay (AlamarBlue) in HepAD38 cells; conditions: human

T1 sequence (P03146 whole entry, looked up, the tested form may be a part): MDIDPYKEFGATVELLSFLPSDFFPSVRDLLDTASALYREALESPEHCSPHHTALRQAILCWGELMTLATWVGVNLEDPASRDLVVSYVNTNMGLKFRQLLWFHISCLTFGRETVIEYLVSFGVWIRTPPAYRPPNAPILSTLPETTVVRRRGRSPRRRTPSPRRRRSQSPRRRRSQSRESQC

| SMILES | IC50 (HBV core protein) | EC50 (HBV) | CC50 at 6 days [1] |
| --- | --- | --- | --- |
| CN(C(=O)c1n[nH]c2c1CN(C(=O)c1cc3ccccc3[nH]1)CC2)[C@@H]1CCCC[C@H]1O (racemic) [Example 192, N-[(±)-2-hydroxycyclohexyl]-5-(1H-indole-2-carbonyl)-N-methyl-1H,4H,5H,6H,7H-pyrazolo[4,3-c]pyridine-3-carboxamide] | 5 to 10 µM | < 1 µM | > 10 µM |
| CN(CCO)C(=O)c1n[nH]c2c1CN(C(=O)c1cc3c(C(F)F)cc(F)cc3[nH]1)CC2 [Example 3, 5-[4-(difluoromethyl)-6-fluoro-1H-indole-2-carbonyl]-N-(2-hydroxyethyl)-N-methyl-1H,4H,5H,6H,7H-pyrazolo[4,3-c]pyridine-3-carboxamide] | < 5 µM | < 1 µM | > 10 µM |
| CN(CCO)C(=O)c1n[nH]c2c1CN(C(=O)c1cc3c(C(F)F)cccc3[nH]1)CC2 [Example 4, 5-[4-(difluoromethyl)-1H-indole-2-carbonyl]-N-(2-hydroxyethyl)-N-methyl-1H,4H,5H,6H,7H-pyrazolo[4,3-c]pyridine-3-carboxamide] | < 5 µM | < 1 µM | > 10 µM |
| CN(CCO)C(=O)c1n[nH]c2c1CN(C(=O)c1cc3c(C(C)(F)F)cccc3[nH]1)CC2 [Example 5, 5-[4-(1,1-difluoroethyl)-1H-indole-2-carbonyl]-N-(2-hydroxyethyl)-N-methyl-1H,4H,5H,6H,7H-pyrazolo[4,3-c]pyridine-3-carboxamide] | < 5 µM | < 100 µM | > 32 µM |
| CN(CCO)C(=O)c1n[nH]c2c1CN(C(=O)c1cc3cc(F)c(Cl)cc3[nH]1)CC2 [Example 6, 5-(6-chloro-5-fluoro-1H-indole-2-carbonyl)-N-(2-hydroxyethyl)-N-methyl-1H,4H,5H,6H,7H-pyrazolo[4,3-c]pyridine-3-carboxamide] | < 5 µM | < 1 µM | > 10 µM |
| CN(CCO)C(=O)c1n[nH]c2c1CN(C(=O)c1cc3cc(F)c(F)cc3[nH]1)CC2 [Example 7, 5-(5,6-difluoro-1H-indole-2-carbonyl)-N-(2-hydroxyethyl)-N-methyl-1H,4H,5H,6H,7H-pyrazolo[4,3-c]pyridine-3-carboxamide] | < 5 µM | < 1 µM | > 10 µM |
| CN(CCO)C(=O)c1n[nH]c2c1CN(C(=O)c1cc3c(F)c(F)c(F)cc3[nH]1)CC2 [Example 8, N-(2-hydroxyethyl)-N-methyl-5-(4,5,6-trifluoro-1H-indole-2-carbonyl)-1H,4H,5H,6H,7H-pyrazolo[4,3-c]pyridine-3-carboxamide] | < 5 µM | < 1 µM | > 10 µM |
| CCc1ccc(F)c2[nH]c(C(=O)N3CCc4[nH]nc(C(=O)N(C)CCO)c4C3)cc12 [Example 9, 5-(4-ethyl-7-fluoro-1H-indole-2-carbonyl)-N-(2-hydroxyethyl)-N-methyl-1H,4H,5H,6H,7H-pyrazolo[4,3-c]pyridine-3-carboxamide] | < 5 µM | < 1 µM | > 10 µM |
| CCc1cc(F)cc2[nH]c(C(=O)N3CCc4[nH]nc(C(=O)N(C)CCO)c4C3)cc12 [Example 10, 5-(4-ethyl-6-fluoro-1H-indole-2-carbonyl)-N-(2-hydroxyethyl)-N-methyl-1H,4H,5H,6H,7H-pyrazolo[4,3-c]pyridine-3-carboxamide] | < 5 µM | < 1 µM | > 10 µM |
| CCc1cc(F)cc2[nH]c(C(=O)N3CCc4n[nH]c(-c5cscn5)c4C3)cc12 [Example 12, 4-ethyl-6-fluoro-2-[3-(1,3-thiazol-4-yl)-2H,4H,5H,6H,7H-pyrazolo[4,3-c]pyridine-5-carbonyl]-1H-indole] | < 5 µM | < 1 µM | > 10 µM |
| O=C(c1cc2ccc(Br)cc2[nH]1)N1CCc2n[nH]c(-c3cscn3)c2C1 [Example 15, 6-bromo-2-[3-(1,3-thiazol-4-yl)-2H,4H,5H,6H,7H-pyrazolo[4,3-c]pyridine-5-carbonyl]-1H-indole] | 5 to 10 µM | < 1 µM | > 10 µM |
| O=C(c1cc2ccc(Cl)cc2[nH]1)N1CCc2n[nH]c(-c3cscn3)c2C1 [Example 16, 6-chloro-2-[3-(1,3-thiazol-4-yl)-2H,4H,5H,6H,7H-pyrazolo[4,3-c]pyridine-5-carbonyl]-1H-indole] | < 5 µM | < 1 µM | > 10 µM |
| O=C(c1cc2c(F)ccc(F)c2[nH]1)N1CCc2n[nH]c(-c3cscn3)c2C1 [Example 17, 4,7-difluoro-2-[3-(1,3-thiazol-4-yl)-2H,4H,5H,6H,7H-pyrazolo[4,3-c]pyridine-5-carbonyl]-1H-indole] | < 5 µM | < 1 µM | > 10 µM |
| CCc1cccc2[nH]c(C(=O)N3CCc4n[nH]c(-c5cscn5)c4C3)cc12 [Example 18, 4-ethyl-2-[3-(1,3-thiazol-4-yl)-2H,4H,5H,6H,7H-pyrazolo[4,3-c]pyridine-5-carbonyl]-1H-indole] | < 5 µM | < 1 µM | 7.3 µM |
| O=C(c1cc2c(Cl)cccc2[nH]1)N1CCc2n[nH]c(-c3cscn3)c2C1 [Example 19, 4-chloro-2-[3-(1,3-thiazol-4-yl)-2H,4H,5H,6H,7H-pyrazolo[4,3-c]pyridine-5-carbonyl]-1H-indole] | < 5 µM | < 1 µM | > 10 µM |
| O=C(c1cc2c(F)cc(F)cc2[nH]1)N1CCc2n[nH]c(-c3cscn3)c2C1 [Example 20, 4,6-difluoro-2-[3-(1,3-thiazol-4-yl)-2H,4H,5H,6H,7H-pyrazolo[4,3-c]pyridine-5-carbonyl]-1H-indole] | < 5 µM | < 1 µM | > 10 µM |
| O=C(c1cc2c(C(F)(F)F)cccc2[nH]1)N1CCc2n[nH]c(-c3cscn3)c2C1 [Example 21, 2-[3-(1,3-thiazol-4-yl)-2H,4H,5H,6H,7H-pyrazolo[4,3-c]pyridine-5-carbonyl]-4-(trifluoromethyl)-1H-indole] | < 100 µM | < 1 µM | > 10 µM |
| O=C(c1cc2c(F)c(F)ccc2[nH]1)N1CCc2n[nH]c(-c3cscn3)c2C1 [Example 22, 4,5-difluoro-2-[3-(1,3-thiazol-4-yl)-2H,4H,5H,6H,7H-pyrazolo[4,3-c]pyridine-5-carbonyl]-1H-indole] | < 5 µM | < 1 µM | > 10 µM |
| Cc1cccc2[nH]c(C(=O)N3CCc4n[nH]c(-c5cscn5)c4C3)cc12 [Example 23, 4-methyl-2-[3-(1,3-thiazol-4-yl)-2H,4H,5H,6H,7H-pyrazolo[4,3-c]pyridine-5-carbonyl]-1H-indole] | < 5 µM | < 1 µM | > 10 µM |
| COC(=O)C1CCN(C(=O)c2n[nH]c3c2CN(C(=O)c2cc4ccccc4[nH]2)CC3)CC1 [Example 132, methyl 1-[5-(1H-indole-2-carbonyl)-1H,4H,5H,6H,7H-pyrazolo[4,3-c]pyridine-3-carbonyl]piperidine-4-carboxylate] | < 5 µM | – | > 10 µM |
| CN(C(=O)c1n[nH]c2c1CN(C(=O)c1cc3ccccc3[nH]1)CC2)C(C)(C)CO [Example 143, N-(1-hydroxy-2-methylpropan-2-yl)-5-(1H-indole-2-carbonyl)-N-methyl-1H,4H,5H,6H,7H-pyrazolo[4,3-c]pyridine-3-carboxamide] | 5 to 10 µM | 1 to 25 µM | – |
